The source of these data is PubChem BioAssay (NCI).

What all share (test): growth of human tumour cells (NCI), 48 h
The subject of assay [1] is NCI-H23 lung.
The subject of assay [2] is IGROV1 ovarian.
For assay [3], the system named is MDA-MB-231 breast.
For assay [4], the system named is SK-MEL-5 melanoma.
Assay [5] concerns MOLT-4 leukemia.
The subject of assay [6] is COLO 205 colon.
In assay [7] the test system is CAKI-1 renal.
Assay [8] relates to OVCAR-3 ovarian.
The test system of assay [9] is NCI-H460 lung.
The test system of assay [10] is OVCAR-5 ovarian.
Assay [11] has as its system ACHN renal.
Assay [12] deals with PC-3 prostate.
Assay [13] deals with HCT-15 colon.
In assay [14] the test system is HOP-62 NSCLC.
Assay [15] deals with HOP-92 NSCLC.
The subject of assay [16] is MALME-3M melanoma.
Assay [17] relates to MDA-N.
Assay [18] concerns LOX IMVI melanoma.
For assay [19], the system named is RXF 393 renal.

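Compound exposure: 48 hours, 5 concentrations, 96-well plates. TGI marks complete inhibition of growth.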

Take `COc1ccc(C2=NNC(=O)c3ccccc3N2c2nc(-c3cccs3)nc3cc(OC)c(OC)cc23)cc1`: the TGI was above 100 µM in [1]; above 100 µM in assay [2]; 13.5 µM in [3]; 17.3 µM in assay [4]; above 100 µM in [5]; above 100 µM in [6]. Further, the TGI is 44.7 µM in assay [7]; 9.24 µM in assay [8]; above 100 µM in assay [9]; above 100 µM in [10]; 13.3 µM in [11]; above 100 µM in assay [12]. The TGI in [13] was above 100 µM; in assay [14], 17 µM; in [15], 7.97 µM; in assay [16] it was 6.92 µM.
As for `O=C1CN(c2cccc(C(F)(F)F)c2)C(=O)CN1CCN1CC(=O)N(c2cccc(C(F)(F)F)c2)CC1=O`, the TGI in assay [2], in assay [3], in assay [4], in assay [5], in assay [6] and in assay [9] was above 100 µM throughout. The TGI in assay [10], in assay [11], in assay [12], in [17], in assay [13] and in assay [14] was above 100 µM in each case.
In the case of `CC#CCCCC1(C)CCNC1=S` (configuration not stated), the TGI in assay [1], in assay [5], in [18], in assay [8], in [9] and in [10] was above 10 µM each time. Besides, the TGI in assay [19], in assay [11], in assay [12], in assay [17], in assay [13] and in assay [15] was above 10 µM throughout. Further, in assay [16], the TGI is above 10 µM.
On to `O=S(=O)(c1ccccc1)c1ccc(-c2nc(-c3ccc4c(c3)Sc3ccccc3S4)cs2)cc1`, for which the TGI was 36.1 µM in assay [1]; above 100 µM in assay [3]; above 100 µM in assay [5]; above 100 µM in assay [6]; above 100 µM in assay [18]; above 100 µM in [7]. Further, the TGI in assay [8] is above 100 µM; in assay [9] it was above 100 µM; in [10], above 100 µM; in [19], 35.3 µM; in [11] it was above 100 µM; in [12] it was above 100 µM. For the same compound, the TGI in assay [13] was above 100 µM; in [14], 45.5 µM; in assay [15] it was 62.9 µM; in assay [16], above 100 µM.
In the case of `CC(C)(C)OC(=O)N1N=CCC1c1ccccc1` (configuration not stated), the TGI in assay [1], in [2], in assay [4], in [6], in assay [18] and in assay [7] was above 100 µM throughout. Moreover, the TGI in assay [8], in assay [9], in assay [10], in [19], in assay [11] and in assay [13] was above 100 µM each time. For the same compound, the TGI in assay [14] and in assay [15] was above 100 µM in each case.
Consider `COc1ccc(Nc2nc(N)c(C(=O)c3ccc(Cl)cc3)s2)cc1`, for which the TGI in assay [1] stood at 6.78 µM; in assay [2], 17.7 µM; in assay [3], 6.13 µM; in [4], 2.19 µM; in assay [6], 0.117 µM; in assay [18], 19.9 µM. The TGI in [7] was 13.4 µM; in [8], 0.421 µM; in assay [9] it was 4.62 µM; in [10], 34.7 µM; in assay [19], 0.0323 µM; in assay [11] it was 31.5 µM. Further, the TGI in assay [12] is 6.61 µM; in [13], 5.49 µM; in assay [14], 17 µM; in assay [15], above 93.3 µM.
Turning to `O=c1[nH]c2ccc(CC(=S)N3CCOCC3)cc2o1`, the TGI in assay [1], in assay [2], in assay [3], in assay [5], in assay [6] and in assay [18] was above 100 µM in each case. Moreover, the TGI in assay [7], in assay [8], in [9], in assay [10], in assay [19] and in assay [11] was above 100 µM each time. Further, the TGI in assay [12], in assay [13], in assay [14] and in assay [16] was above 100 µM in each case.
Consider `C=CCOC(=O)Cn1ccc(=O)[nH]c1=O`, for which the TGI in assay [1], in assay [2], in [3], in assay [4], in assay [5] and in assay [6] was above 100 µM in each case. Besides, the TGI in assay [18], in [7], in [9], in [10], in assay [11] and in assay [12] was above 100 µM throughout. Besides, the TGI in assay [17], in assay [13], in [14] and in assay [16] was above 100 µM in each case.
For `Cc1cc(C)c2c(n1)S(=O)(=O)N(CCCN1CCN(c3cccc(Cl)c3)CC1)/C(=C(\O)c1ccc(Br)cc1)C2=O`, the TGI in assay [1] is above 100 µM; in assay [2] it was above 100 µM; in [3], above 100 µM; in [4] it was 39.7 µM; in assay [5], 60.2 µM; in assay [6] it was 29.8 µM. Also, the TGI in assay [18] is above 100 µM; in [7], 49.4 µM; in assay [8] it was 94.7 µM; in assay [9], 33.2 µM; in assay [10], above 100 µM; in [19], 83.7 µM. Moreover, the TGI in [11] is above 100 µM; in assay [12] it was above 100 µM; in [13], above 100 µM; in [14], above 100 µM; in [15], 59.6 µM; in [16], above 100 µM.
